Measurements as given in the supplement of paper PMC4862054.

Legend:
Conditions in all cases: incubation time: 72 h
[1] = tested on: HCC1143; assay: drug sensitivity score (DSS), CellTox Green (DSS (AUC-based score)); higher = stronger drug effect (viability inhibition or cytotoxicity); extreme values may be limits of the assay
Summary of the method: (§1)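 The drug sensitivity score was computed from the area under the fitted dose-response curve. Breast cancer cell lines in 20 µl suspension went into 384-well plates holding compound at 5 concentrations (10-fold steps over a 10,000-fold, compound-specific range) for 72 h of incubation. CellTox Green fluorescence (485/520 nm) was read before CellTiter-Glo luminescence, the latter after 10 min at room temperature, and each plate was normalised to 0.1 % DMSO and a positive kill control.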

[2] = tested on: HCC1599; assay: as above
Summary of the method: as §1

[3] = tested on: HDQ-P1; assay: as above
Summary of the method: as §1

[4] = tested on: CAL-120; assay: as above
Summary of the method: as §1

[5] = tested on: MCF-10A; assay: as above
Summary of the method: as §1

[6] = tested on: MFM-223; assay: as above
Summary of the method: as §1

[7] = tested on: BT-549; assay: as above
Summary of the method: as §1

[8] = tested on: CAL-85-1; assay: as above
Summary of the method: as §1

[9] = tested on: MDA-MB-453; assay: drug sensitivity score (DSS), CellTiter-Blue viability (DSS (AUC-based score)); higher = stronger viability inhibition; extreme values may be limits of the assay
Experimental: (§2)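 DSRT with the CellTiter-Blue (resazurin reduction) viability readout, fluorescence 560/590 nm, 72 h incubation. Plates were normalised to DMSO and benzethonium chloride controls. DSS is computed from the area under the fitted dose-response curve (5 or 9 concentrations).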

[10] = tested on: MDA-MB-468; assay: as above
Experimental: as §2

[11] = tested on: HCC1143; assay: as above
Experimental: as §2

[12] = tested on: Hs578T; assay: as above
Experimental: as §2

[13] = tested on: CAL-148; assay: as above
Experimental: as §2

[14] = tested on: HCC1599; assay: as above
Experimental: as §2

[15] = tested on: MDA-MB-231; assay: as above
Experimental: as §2

[16] = tested on: HDQ-P1; assay: as above
Experimental: as §2

[17] = tested on: CAL-120; assay: as above
Experimental: as §2

[18] = tested on: MFM-223; assay: as above
Experimental: as §2

[19] = tested on: SK-BR-3; assay: as above
Experimental: as §2

[20] = tested on: CAL-51; assay: as above
Experimental: as §2

[21] = tested on: BT-549; assay: as above
Experimental: as §2

[22] = tested on: MDA-MB-436; assay: as above
Experimental: as §2

[23] = tested on: BT-474; assay: as above
Experimental: as §2

[24] = tested on: DU-4475; assay: as above
Experimental: as §2

[25] = tested on: HCC1937; assay: as above
Experimental: as §2

[26] = tested on: CAL-85-1; assay: as above
Experimental: as §2

Row | SMILES | drug sensitivity score [1] | drug sensitivity score [2] | drug sensitivity score [3] | drug sensitivity score [4] | drug sensitivity score [5] | drug sensitivity score [6] | drug sensitivity score [7] | drug sensitivity score [8] | drug sensitivity score [9] | drug sensitivity score [10] | drug sensitivity score [11] | drug sensitivity score [12] | drug sensitivity score [13] | drug sensitivity score [14] | drug sensitivity score [15] | drug sensitivity score [16] | drug sensitivity score [17] | drug sensitivity score [18] | drug sensitivity score [19] | drug sensitivity score [20] | drug sensitivity score [21] | drug sensitivity score [22] | drug sensitivity score [23] | drug sensitivity score [24] | drug sensitivity score [25] | drug sensitivity score [26]
1 | CCS(=O)(=O)c1cccc(-c2cc(C(=O)NC3CCN(C)CC3)c(C)c3[nH]c4ncc(C)cc4c23)c1 [TAK-901] | 0 | 0 | 0 | 0 | 0 | 0 | 0.958 | 0 | 10.7 | 0.762 | 8.44 | 6.31 | 0 | 4.14 | 9 | 5.84 | 10 | 10.3 | 0 | 8.9 | 8.46 | 1.92 | 0 | 3.52 | 6.44 | 5.05
2 | CCCC(CCC)C(=O)O [Valproic acid] | 0 | 0 | 0 | 0 | 0 | 0 | 0 | 0 | 0 | 0 | 0 | 0 | 0 | 0 | 0 | 0 | 0 | 0 | 0 | 0 | 0 | 0 | 0 | 0 | 0 | 0
